From the NIST ThermoML archive (doi:10.1016/j.fluid.2016.06.019)
Numbers after ± are expanded uncertainties.

How the values were obtained:
[1] = refractive index (Na D-line) (dimensionless); wn = mass fraction of the nth substance listed; conditions: 298.15 K, 100 kPa, Liquid, Standard Abbe refractometry
[2] = wn = mass fraction of the nth substance listed; conditions: 298.15 K, 100 kPa, Liquid, Vibrating tube method
[3] = refractive index (Na D-line) (dimensionless); conditions: 298.15 K; 100 kPa; Liquid; Standard Abbe refractometry

## O [water] + N.N.O=S(=O)(O)O
[1]; w2 = 0
  refractive index: 1.3325 ± 0.00031

## O=S(=O)([O-])[O-].[Na+].[Na+] [sodium sulfate] + O
[2]; w1 = 0.0005
  mass density: 997.6 ± 0.3 kg/m3
[2]; w1 = 0.0011
  mass density: 998.1 ± 0.3 kg/m3
[2]; w1 = 0.0053
  mass density: 1002 ± 0.3 kg/m3
[2]; w1 = 0.0108
  mass density: 1006.9 ± 0.3 kg/m3
[2]; w1 = 0.0214
  mass density: 1016.5 ± 0.3 kg/m3
[2]; w1 = 0.042
  mass density: 1035.1 ± 0.3 kg/m3
[2]; w1 = 0.0719
  mass density: 1062.6 ± 0.3 kg/m3
[2]; w1 = 0.0994
  mass density: 1088.5 ± 0.3 kg/m3
[1]; w1 = 0.0005
  refractive index: 1.33258 ± 0.00031
[1]; w1 = 0.0011
  refractive index: 1.33266 ± 0.00031
[1]; w1 = 0.0053
  refractive index: 1.33331 ± 0.00031
[1]; w1 = 0.0108
  refractive index: 1.33414 ± 0.00031
[1]; w1 = 0.0214
  refractive index: 1.3357 ± 0.00031
[1]; w1 = 0.042
  refractive index: 1.33875 ± 0.00031
[1]; w1 = 0.0719
  refractive index: 1.34307 ± 0.00032
[1]; w1 = 0.0994
  refractive index: 1.34535 ± 0.00032

## O [water] + O=S(=O)([O-])[O-].[Na+].[Na+]
[1]; w2 = 0
  refractive index: 1.3325 ± 0.00031

## N.N.O=S(=O)(O)O [ammonium sulfate] + O
[2]; w1 = 0.0005
  mass density: 997.4 ± 0.2 kg/m3
[2]; w1 = 0.0011
  mass density: 997.7 ± 0.2 kg/m3
[2]; w1 = 0.0053
  mass density: 1000.3 ± 0.2 kg/m3
[2]; w1 = 0.0104
  mass density: 1003.3 ± 0.2 kg/m3
[2]; w1 = 0.0208
  mass density: 1009.4 ± 0.2 kg/m3
[2]; w1 = 0.0412
  mass density: 1021.2 ± 0.2 kg/m3
[2]; w1 = 0.0712
  mass density: 1038.4 ± 0.2 kg/m3
[2]; w1 = 0.1007
  mass density: 1055.3 ± 0.2 kg/m3
[1]; w1 = 0.0005
  refractive index: 1.33259 ± 0.00031
[1]; w1 = 0.0011
  refractive index: 1.33268 ± 0.00031
[1]; w1 = 0.0053
  refractive index: 1.33337 ± 0.00031
[1]; w1 = 0.0104
  refractive index: 1.33425 ± 0.00031
[1]; w1 = 0.0208
  refractive index: 1.33594 ± 0.00031
[1]; w1 = 0.0412
  refractive index: 1.33921 ± 0.00032
[1]; w1 = 0.0712
  refractive index: 1.34393 ± 0.00032
[1]; w1 = 0.1007
  refractive index: 1.34856 ± 0.00032

## O [water]
[3]
  refractive index: 1.3325 ± 0.00031
